Source: patent US20230184743A1, “SCREENING METHODS TO IDENTIFY SMALL MOLECULE COMPOUNDS THAT PROMOTE OR INHIBIT THE GROWTH OF CIRCULATING TUMOR CELLS, AND USES THEREOF” (University of Southern California, priority 2020, published 2023)
“Also recorded” adds a separate entry of the source.

Legend:
Assay type in all cases: cell-based, human
[1] = tested on: CTC lines (BRx42, BRx50 and BRx68) spiked into healthy donors' blood; test: Spike-in experiment: growth of CTCs isolated from spiked healthy donors' blood; details: RosetteSep isolated, cultured 20 days
Method: Spike-in experiment. Healthy volunteers' blood samples were collected. GFP-positive CTC lines (50 cells/mL) were spiked into the blood samples from healthy volunteers, and RosetteSep™ CTC Enrichment Cocktail Containing […] was used to enrich CTCs from spiked-in samples. Isolated CTCs were cultured in GravityTRAP™ ULA Plate 96 wells. Each patient CTC cell line was processed by 2 different researchers.
Validation on spiked-in CTCs. To mimic the CTC isolation procedure, spiked-in experiments were performed with 3 CTC lines (BRx42, BRx50 and BRx68) into healthy donors' blood. The RosettSep CTC isolation method was used to isolate the spiked CTCs, and separated isolated CTCs equally into wells with control media or with NAC or NAC plus P1C2. […] This confirmed the effects of these compounds on expanding CTCs that have been processed through an isolation procedure. NAC single cell clones form tumors with similar kinetics as controls. It was noticed that the most critical phase is the initial expansion from single CTCs. […] Therefore, treatment of these compounds was stopped at 24 days, and then prolonged the culture to generate several single cell clones. To evaluate the tumorigenicity of the single cell clones, GFP-Luciferase tagged BRx68 single clones generated with NAC treatment or control clones were injected into the mammary fat pats of female NSG mice.

[2] = tested on: Glutathione (GSH) in BRx68 cells; test: Glutathione measurement; details: 300 μmol/L NAC
Method: Glutathione measurement. A total of 1×10^6 BRx68 cells were cultured with or without 300 μmol/L NAC for 6 or 13 days. At the end of incubation periods, cells were washed in ice cold PBS, lysed in 5% 5-sulfo-salicylic acid dehydrate by vortexing and repeating cycles of freeze-thaw, then centrifuged at 14,000 rpm for 10 minutes and supernatant was transferred to clean tubes. Glutathione (GSH) was measured using a GSH Colorimetric Detection Kit (Invitrogen) following the manufacturer's instructions.

[3] = tested on: single CTCs from a patient with breast cancer; test: Culture of freshly isolated single CTCs from patients with breast cancer in NAC containing media; details: clones dying after 2 weeks in regular media
Method: Patient samples. Ten milliliters of blood was collected from each of a total of 12 patients with breast cancer (stage IV). All experiments were performed following the ethical principles. Informed consents were signed by all patients and/or their legal guardian/s.
Isolation of single CTCs. Single CTCs were detected and retrieved using the negative selection protocol of PIC&RUN assay. Briefly, 7.5 mL of blood was added to each AccuCyte Separation Tube (RareCyte) and tubes were centrifuged twice in a special device to collect buffy coats in 1 mL of CTC media. Buffy coats were stained with a cocktail of immune cell markers (IM) antibodies (CD45, CD14, and CD16) and Cell-Tracker green for 30 min at 37° C. Stained buffy coats were seeded on polyhema coated cyteslides and scanned semi-automatically using RareCyte fluorescence. When a CTC was detected, the Rarecyte ceramic tip needle was operated semi-automatically to pick up the cell of interest in a draw volume of 50 nL to 0.5 μL, and deposit it in a PCR tube contains 50 μL of media. PCR tubes were pulse spun, their contents were moved to a well of a 96-well GravityTRAP ultralow plate (InSphero) and plates were incubated at 37° C., 5% CO2 and 4% 02 for 3 weeks. Media was replaced every 3 to 4 days and cells were checked every week.
NAC rescued the proliferation of freshly isolated CTCs from a patient with breast cancer. […]

BRx68-GFP+ cells = test: RNA-seq analysis of pools of growing single cell clones; details: day 6; NAC 0.3 mM, P4D8 1 μM
Method: RNA-seq analysis. BRx68-GFP+ cells were sorted, with 1 cell per well, using the MoFlo cell sorter (Beckman Coulter). Single cells were cultured in the presence of CTC media containing either 1 μM of P1C2, P4D8, or P1G7, or 0.3 mM of NAC or a combination of 1 μM of P1C2 and 0.3 mM of NAC. Cells cultured in media containing DMSO served as a control. All cells were cultured for either 6 days or 13 days at 37° C., 5% CO2 and 4% O2, and media was changed every 3 days. For both day 6 and day 13 groups, only clones with more than 3 cells at day 6 were harvested and pooled to a maximum of 50 cells. […] Libraries were sequenced on an Illumina NextSeq500 to obtain 75 bp-long single-end reads.
RNA-sequencing reads were trimmed for Nextera and Illumina adapter sequences using Trim Galore under default parameters. Trimmed reads were then mapped to the human genome build GRCh37 from Ensembl (ftp:/][/ftp.ensembl.org/pub/grch37/current/fasta/homo_sapiens/dna/Homo_sapiens.GRCh37.dna_sm.primary_as sembly.fa.gz) using STAR under optimized parameters for single-end sequenced data. Aligned reads were then counted via feature-Counts and piped into DESeq2 for normalization to sequencing depth and downstream analysis. […]

CC(=O)N[C@@H](CS)C(=O)O [NAC, N-acetyl-L-cysteine]
growth of isolated CTCs compared to the control condition [1]: promote growth of small numbers of CTCs; also recorded: significantly increased
total GSH level in NAC treated cells vs untreated control cells ([2]; day 6): 44.42±5.165
total GSH level in NAC treated cells vs untreated control cells ([2]; day 13): not at day 13
proliferation of freshly isolated patient CTC clone after switch to NAC containing media [3]: rescued a CTC clone; also recorded: recovered and resumed proliferation
lipid metabolism pathway enrichment (IPA of differentially expressed genes) compared with control (BRx68-GFP+ cells): enriched
